Converted amounts (≈) assume the structure as drawn. Like-named read-outs stand apart in the source and are kept apart here.
Tests used:
[1] = system: Candida albicans ATCC 11651; assay: In vivo systemic Candida infection in mice, primary assay; set-up: species or system Candida albicans; CF-1 female mice; settings: Candida albicans, 150 mg/kg per day, read-out: % Survival
Procedure, shortened: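 CF-1 female mice (20 g, 10 per group) were infected IV with 0.2 ml of 1×10^7/ml C. albicans ATCC 11651, then given test compound subcutaneously at 50 or 150 mg/kg/day at 1 and 6 h post-infection and once daily for three more days. Survival was followed for 21 days against infected untreated mice; ≥70% protection at 14 days was scored active.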

[2] = system: Pyricularia oryzae; assay: whole plant or invertebrate; type: in vivo; settings: Pyricularia oryzae, 120 h; for pest or weed control at 100 ppm: read-out: disease control rating, Ex. E, 100 PPM
[3] = system: Rhizoctonia solani; assay: Example K cotton blight; type: in vivo; settings: 336 h, 5 kg/ha, read-out: disease control rating, Ex. K
Method: […] Seeds and soil were then inoculated with a mixture of sand, cereal and mycelium of the fungus Rhizoctonia solani, causal agent of cotton blight, and incubated in a growth chamber at 30° C. for 14 days. Disease ratings were then made.

[4] = system: Sclerotium rolfsii; assay: Example M southern blight; type: in vivo; settings: Agroathelia rolfsii, 336 h; 5 kg/ha; read-out: disease control rating, Ex. M
Method: […] Seeds and soil were then inoculated with a mixture of sand, cereal and mycelium of the fungus Sclerotium rolfsii, causal agent of sourthern blight, and incubated in a growth chamber at 30° C. for 14 days. Disease ratings were then made.

[5] = system: Candida albicans ATCC 11651; assay: In vitro antifungal MIC, microtiter broth dilution; settings: Candida albicans, ATCC11651, 24 h, read-out: MIC values, C. albicans, 30°, 24 hours
[6] = system: Botrytis cinerea; assay: Example C bean grey mold; type: in vivo; settings: Botrytis cinerea, 24 h, read-out: disease control rating, Ex. C
Procedure, shortened: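 Test compounds were taken up in acetone (6% of final volume) and suspended at 100 or 20 ppm in purified water containing 250 ppm TREM 014 surfactant (polyhydric alcohol esters). Broad bean seedlings were sprayed with this suspension until run-off.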

[7] = system: Pythium aphanadermatum; assay: Example J cucumber damping off; type: in vivo; set-up: key to phytotoxicity entry, Ex. J: P: disease control was not measured due to phytoxicity; settings: 5 kg/ha; for pest or weed control at 5000 g/ha: Pythium, 336 h, read-out: disease control rating, Ex. J
Method: […] Seeds and soil were then inoculated with a mixture of sand, cereal and mycelium of the fungus Pythium aphanadermatum, causal agent of cucumber damping off, and incubated in a growth chamber at 30° C. for 14 days. Disease ratings were then made.

[8] = system: Erysiphe graminis f. sp. tritici; assay: Example D wheat powdery mildew; type: in vivo; settings: Blumeria graminis, 144 h, read-out: disease control rating, Ex. D
Procedure, shortened: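 Compounds were dissolved in acetone (6% of final volume), then suspended at 100 or 20 ppm in purified water containing 250 ppm TREM 014 surfactant. Wheat seedlings were sprayed with this suspension to run-off.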

[9] = system: Venturia inaequalis; assay: Example A apple scab; type: in vivo; settings: read-out: disease control rating, Ex. A
Procedure, shortened: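 Test compounds were dissolved in acetone (6% of final volume) and suspended at 100 or 20 ppm in purified water containing 250 ppm of the surfactant TREM 014 (polyhydric alcohol esters). Apple seedlings were sprayed with this suspension to the point of run-off.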

[10] = system: Rhizoctonia solani; assay: Example F rice sheath blight; type: in vivo; settings: Rhizoctonia solani, 144 h, read-out: disease control rating, Ex. F
Procedure, shortened: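 Compounds, dissolved in acetone at 6% of final volume, were suspended at 100 or 20 ppm in purified water with 250 ppm polyhydric alcohol ester surfactant (TREM 014). Rice seedlings were sprayed with this suspension to run-off.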

[11] = system: Aspergillus fumigatus ATCC 28214; assay: In vitro antifungal MIC, microtiter broth dilution; settings: Aspergillus fumigatus, ATCC28214, 24 h, read-out: MIC values, A. fumigatus, 30°, 24 hours
[12] = system: Plasmorpara viticola; assay: Example I grape downy mildew; type: in vivo; settings: read-out: disease control rating, Ex. I
Procedure, shortened: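 Compounds were dissolved in acetone (6% of final volume) and suspended at 100 or 20 ppm in purified water with 250 ppm TREM 014 surfactant (polyhydric alcohol esters). Grape seedlings were sprayed with this suspension to run-off.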

[13] = system: Puccinia recondita; assay: Example G wheat leaf rust; type: in vivo; settings: read-out: disease control rating, Ex. G
[14] = system: Phytophthora infestans; assay: whole plant or invertebrate; type: in vivo; settings: Phytophthora infestans, in Solanum lycopersicum, read-out: disease control rating, Ex. H, 100 PPM
[15] = system: Cercosporidium personatum; assay: Example B Peanut Late Leafspot; type: in vivo; settings: Nothopassalora personata, read-out: disease control rating, Ex. B
Procedure, shortened: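 Compounds were dissolved in acetone (6% of final volume) and suspended at 100 or 20 ppm in purified water containing 250 ppm TREM 014 surfactant (polyhydric alcohol esters). The suspension was sprayed to run-off on peanut seedlings.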

| Structure (SMILES) | responders at 150 mg/kg ([1]; ATCC11651, 168 h, day 7) [%] | responders at 150 mg/kg ([1]; ATCC11651, 336 h, day 14) [%] | responders at 150 mg/kg ([1]; ATCC11651, 504 h, day 21) [%] | pest or weed control at 100 ppm [2] [%] | pest or weed control at 5000 g/ha [3] [%] | pest or weed control at 5000 g/ha [4] [%] | MIC [5] [µg/mL] | pest or weed control at 100 ppm [6] [%] | pest or weed control at 100 ppm [8] [%] | pest or weed control at 100 ppm [9] [%] | pest or weed control at 100 ppm [10] [%] | MIC [11] [µg/mL] | pest or weed control at 100 ppm [12] [%] | pest or weed control at 100 ppm [13] [%] | pest or weed control at 100 ppm [14] [%] | pest or weed control at 100 ppm [15] [%] | pest or weed control at 5000 g/ha [7] [%] | further results |
| --- | --- | --- | --- | --- | --- | --- | --- | --- | --- | --- | --- | --- | --- | --- | --- | --- | --- | --- |
| C=C(c1ccc(Cl)cc1Cl)C(O)(Cn1cncn1)c1ccc(Cl)cc1Cl (stereo not drawn) [Example 100] | 100 | 50 | 30 | 95 | 0 | 0 | 0.03 (≈ 0.0699 µM) | 96 | 83 | 100 | 80 | 3.2 (≈ 7.46 µM) | 83 | 100 | 0 | 100 | – | phytotoxicity entry, Ex. J [7]: P |
| C=C(c1ccc(Cl)cc1Cl)C(O)(Cn1cncn1)c1ccc(Cl)cc1 (stereo not drawn) [Example 101] | 100 | 90 | 60 | 0 | 0 | 0 | 0.03 (≈ 0.076 µM) | 94 | 83 | 100 | 80 | 12.5 (≈ 31.7 µM) | 100 | 100 | 0 | 100 | 0 | – |
| C=C(c1ccccc1Cl)C(O)(Cn1cncn1)c1ccccc1Cl (stereo not drawn) [Example 622] | 100 | 100 | 100 | 0 | 0 | 0 | 0.03 (≈ 0.0833 µM) | 84 | 99 | 100 | 100 | 0.1 (≈ 0.278 µM) | 26 | 100 | 0 | 100 | 0 | – |
| C=C(c1ccccc1Cl)C(O)(Cn1cncn1)c1ccccc1F (stereo not drawn) [Example 620] | 100 | 100 | 90 | 51 | 0 | 0 | 0.03 (≈ 0.0873 µM) | 96 | 98 | 100 | 100 | 0.05 (≈ 0.145 µM) | 0 | 100 | 0 | 100 | 0 | – |
| C=C(c1cccc(F)c1)C(O)(Cn1cncn1)c1ccc(Cl)cc1 (stereo not drawn) [Example 17] | 100 | 90 | 70 | 0 | 0 | 0 | 0.03 (≈ 0.0873 µM) | 89 | – | – | 81 | 12.5 (≈ 36.4 µM) | 42 | – | 0 | – | 0 | pest or weed control at 20 ppm ([2]; read-out: disease control rating, Ex. E, 20 PPM): 0%; pest or weed control at 20 ppm ([6]; 20 PPM): 57%; pest or weed control at 20 ppm ([8]; 20 PPM): 95%; pest or weed control at 20 ppm ([9]; 20 PPM): 80%; pest or weed control at 20 ppm ([10]; 20 PPM): 0%; pest or weed control at 20 ppm ([13]; 20 PPM): 100%; pest or weed control at 20 ppm ([15]; 20 PPM): 100% |
| C=C(c1ccc(F)cc1)C(O)(CCCC)Cn1cncn1 (stereo not drawn) [Example 6] | 50 | 10 | 0 | 0 | 0 | 0 | 1.6 (≈ 5.53 µM) | 84 | 98 | 0 | 0 | 25 (≈ 86.4 µM) | 0 | 96 | 23 | 82 | 0 | – |

From patent US4965280A, “Antifungal carbinols” (E. I. Du Pont de Nemours and Company, priority 1989, dated 1990)
